Data set [1] concerns M. abscessus Bamboo. In words: MIC assay, clinical isolate Bamboo. Format: cell-based, Mycobacterium abscessus. As to conditions: for MIC: broth, M. abscessus Bamboo, Table 16, read-out: MIC.
Data set [2] can be described thus: Plasma protein binding assay (rapid equilibrium dialysis). The class given is in vitro ADME. An outline of the steps:
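Rapid equilibrium dialysis ran 4 h at 37° C (300 RPM) with compound-spiked plasma (10,000 ng/mL) on one side and PBS on the other. Each side was then mixed 1:1 […] to equalise matrix before LC-MS/MS quantification.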
On the technique in general: In equilibrium dialysis only unbound substance equilibrates across the membrane.

The subject of data set [3] is M. chelonae. In words: MIC, Table 9. Format: cell-based, Mycobacterium chelonae.
The test system of data set [4] is M. fortuitum. In words: MIC, Table 9. Format: cell-based, Mycobacterium fortuitum.
Data set [5] relates to M. abscessus subspecies abscessus. In words: MIC, Table 9. As to conditions: for MIC: M. abscessus subspecies abscessus. The class given is cell-based, Mycobacterium abscessus.
The subject of data set [6] is M. abscessus subspecies bolletii. In words: MIC, Table 9. The class given is cell-based, Mycobacterium abscessus. The settings on record: for MIC: M. abscessus subspecies bolletii.
The subject of data set [7] is M. abscessus Bamboo. In words: Broth MBC90 (bMBC90). The class given is cell-based, Mycobacterium abscessus. As to conditions: broth, 5 days. The source says:
Broth MIC, broth MBC90 (bMBC90), and caseum surrogate MBC90 ([…]) of clinically used antibiotics and of novel ADP-ribosylation-resistant rifabutin analogs against M. abscessus Bamboo have been evaluated.

The subject of data set [8] is M. abscessus Bamboo. In words: Caseum surrogate MBC90 (cMBC90) kill assay. Format: cell-based, Mycobacterium abscessus. The settings on record: for cMBC90/bMBC90: 5-day assays; for MBC: read-out: cMBC90.
Description: (§1) The surrogate matrix was generated as described previously from cultured THP-1 cells (ATCC TIB-202) (mBio, 2023, 14, e0059823). M. abscessus exponential cultures grown in Middlebrook 7H9 broth (Sigma Aldrich) (OD600 0.6-0.9) were spun down and resuspended in water to an OD600 of 7, 0.7, and 0.07. As described for the M. tuberculosis caseum surrogate assay (mnBio, 2023, 14, e0059823), the bacterial suspensions (at three different dilutions resulting in ˜10^9, 10^8, and 10^7 starting CFU/mL, represented by circle, square, and triangle indicators respectively) were added to the caseum surrogate in the ratio 2:1 (vol/wt), briefly homogenized with 1.4-mm zirconia beads, divided evenly into nine 1.5-mL microcentrifuge tubes, and incubated as standing cultures at 37° C. At the indicated time points, tubes were removed and used for CFU enumeration by plating on Middlebrook 7H11 agar (Sigma Aldrich). Separate tubes were used at each time point. To determine the kill curves, cultures with a starting CFU/mL of 10^8 were used (resulting in the middle curve with square indicators). Arrows indicate the time points when drugs were added and the end of the treatment. The experiment was repeated three times independently, yielding similar results. A representative example is shown. Dots and error bars represent means and standard deviations of three technical replicates, respectively.
FIGS. 29A-29M show the Dose-response kill curves against M. abscessus Bamboo in caseum surrogate. M. abscessus cultures were set up as described in the legend of FIG. 28. Bacterial cell suspensions were added to yield a starting CFU of 10^8/mL (FIG. 28, middle growth curve with square indicators). […] The shaded areas indicate drug concentration windows achieved in caseum in vivo. (Antimicrob. Agents Chemother., 2021, 65, e0050621; Antimicrob. Agents Chemother., 2022, 66, e0221221; PLoS Med., 2019, 16, e1002773; ACS Infect. Dis., 2016, 2, 251-267). The experiment was repeated twice independently, yielding similar results. A representative example is shown. Dots and error bars represent means and standard deviations of three technical replicates, respectively. Horizontal dotted lines indicate the cutoff for 1 log reduction in CFU compared to 10-day drug-free control culture. The cMBC90 values shown in Table 16 are the drug concentrations that reduce CFU by 90% relative to the CFU of drug-free controls at day 10. Since the cultures were in the stationary phase on day 5 when drug treatment started, the CFUs of the drug-free cultures at day 10 were similar to the CFUs of the drug-free cultures at day 5 (FIG. 28).
as §1, with “(doi: 10.1128/mbio.00598-23).” for “(mBio, 2023, 14, e0059823).”, “(doi: 10.1128/mbio.00598-23),” for “(mnBio, 2023, 14, e0059823),”, “CFU/mL)” for “CFU/mL, represented by circle, square, and triangle indicators respectively)”, “curves for the drugs,” for “curves,”, “used.” for “used (resulting in the middle curve with square indicators). Arrows indicate the time points when drugs were added and the end of the treatment.”, “results.” for “results. A representative example is shown. Dots and error bars represent means and standard deviations of three technical replicates, respectively.”
The experiment was repeated twice independently, yielding similar results. A representative example is shown. The cMBC90 values shown in Table 16 are the drug concentrations that reduce CFU by 90% relative to the CFU of drug-free controls at day 10. […]

For data set [9], the system named is M. chelonae ATCC 35752. In words: MIC, anti-mycobacterial profiling. As to conditions: for MIC: mean of two experiments. Format: cell-based, Mycobacterium chelonae.
In data set [10] the test system is M. fortuitum ATCC 6841. In words: MIC, anti-mycobacterial profiling. Format: cell-based, Mycobacterium fortuitum. As to conditions: for MIC: mean of two experiments.
The subject of data set [11] is M. avium subsp. hominisuis MAC109. In words: MIC, anti-mycobacterial profiling. Format: cell-based, Mycobacterium avium. As to conditions: for MIC: mean of two experiments.
The subject of data set [12] is M. chimaera CCUG 50989T. In words: MIC, anti-mycobacterial profiling. The class given is cell-based, Mycobacterium chimaera. As to conditions: for MIC: mean of two experiments.
For data set [13], the system named is M. szulgai ATCC 35799. In words: MIC, anti-mycobacterial profiling. The class given is cell-based, Mycobacterium szulgai. As to conditions: for MIC: mean of two experiments.
[14] abbreviates: Mycobacteroides abscessus, 120 h.
Where [15] appears, read: Mycobacteroides chelonae, ATCC35752.
Where [16] appears, read: Mycolicibacterium fortuitum, ATCC6841.
Setting [17] is: Mycobacterium szulgai, ATCC35799.

Converted amounts (≈) assume the structure as drawn. Like-named read-outs stand apart in the source and are kept apart here.

With `CO[C@H]1/C=C/O[C@@]2(C)Oc3c(C)c(O)c4c(c3C2=O)C2=NC3(CCN(CC(C)C)CC3)NC2=C(NC(=O)/C(C)=C/C=C/[C@H](C)[C@H](O)[C@@H](C)[C@@H](O)[C@@H](C)[C@H](OC(=O)c2cccnc2)[C@@H]1C)C4=O` [5m, 25-O-(3-pyridinecarbonyl)-25-O-desacetyrifabutin], in data set [1] (90% inhibition of bacterial growth), the “Mab Bamboo MIC” value is 23 nM. Also, the MIC (commonly the least concentration at which growth counts as inhibited) in data set [1] was determined as 0.02 µM (≈ 0.0182 µg/mL); in data set [3] it was 0.01 µM (≈ 0.0091 µg/mL); in [4], 0.01 µM (≈ 0.0091 µg/mL); in data set [5], 0.05 µM (≈ 0.0455 µg/mL); in [6], 0.03 µM (≈ 0.0273 µg/mL); in data set [9], 0.02 µM (≈ 0.0182 µg/mL). Besides, the MIC in [10] was determined as 0.02 µM (≈ 0.0182 µg/mL); in [11], 0.04 µM (≈ 0.0364 µg/mL); in [12], 0.06 µM (≈ 0.0546 µg/mL); in [13], 0.006 µM (≈ 0.00546 µg/mL). Moreover, the “fold increase in the unbound fraction in plasma” value in data set [2] (plasma) is on record as “at least 100 fold”. Besides, the fold improvement in data set [3] (5m vs rifabutin) is 58; in data set [4] (5m vs rifabutin), 60; in data set [5] (5m vs rifabutin, subspecies abscessus), 30; in data set [6] (5m vs rifabutin, subspecies bolletii), 40. For the same compound, the MBC in data set [7] turned out to be 0.16 µM (≈ 0.146 µg/mL); in data set [8] (caseum surrogate, 5 days, 90% CFU reduction vs drug-free control), 2 µM (≈ 1.82 µg/mL). The cMBC90/bMBC90 in data set [8] came out at 12.5. The “Fold improvement (RFB-5m vs RFB)” value is on record as 30 in data set [9]; 60 in [10]; 0.8 in data set [11]; 0.8 in [12]; 1.7 in data set [13].

As for `CC[C@H]1OC(=O)[C@H](C)[C@@H](O[C@H]2C[C@@](C)(OC)[C@@H](O)[C@H](C)O2)[C@H](C)[C@@H](O[C@@H]2O[C@H](C)C[C@H](N(C)C)[C@H]2O)[C@](C)(OC)C[C@@H](C)C(=O)[C@H](C)[C@@H](O)[C@]1(C)O` [clarithromycin, reference compound], the MIC in data set [1] (Mycobacteroides abscessus) was determined as 0.4 µM (≈ 0.299 µg/mL); in [9] (setting [15]) it was 0.1 µM (≈ 0.0748 µg/mL); in data set [10] (setting [16]), 3.2 µM (≈ 2.39 µg/mL); in [11] (Mycobacterium avium), 0.5 µM (≈ 0.374 µg/mL); in data set [12] (CCUG50989T), 0.8 µM (≈ 0.598 µg/mL); in [13] (setting [17]), 0.3 µM (≈ 0.224 µg/mL). Also, the MBC was found to be 2 µM (≈ 1.5 µg/mL) in data set [7] (setting [14]) and 128 µM (≈ 95.7 µg/mL) in [8] (setting [14]). Besides, the cMBC90/bMBC90 in [8] came out at 64.

With `CO[C@H]1/C=C/O[C@@]2(C)Oc3c(C)c(O)c4c(c3C2=O)C2=NC3(CCN(CC(C)C)CC3)NC2=C(NC(=O)/C(C)=C\C=C\[C@H](C)[C@H](O)[C@@H](C)[C@@H](O)[C@@H](C)[C@H](OC(C)=O)[C@@H]1C)C4=O` [rifabutin, reference compound], the MIC in [1] (Mycobacteroides abscessus) was 3 µM (≈ 2.54 µg/mL); in [3] (Mycobacteroides chelonae), 0.58 µM (≈ 0.491 µg/mL); in [4] (Mycolicibacterium fortuitum), 0.6 µM (≈ 0.508 µg/mL); in data set [5] (Mycobacteroides abscessus), 1.5 µM (≈ 1.27 µg/mL); in data set [6] (Mycobacteroides abscessus) it was 1.2 µM (≈ 1.02 µg/mL); in data set [9] (setting [15]), 0.6 µM (≈ 0.508 µg/mL). Further, the MIC in data set [10] (setting [16]) stood at 1.2 µM (≈ 1.02 µg/mL); in data set [11] (Mycobacterium avium), 0.03 µM (≈ 0.0254 µg/mL); in data set [12] (CCUG50989T), 0.05 µM (≈ 0.0424 µg/mL); in data set [13] (setting [17]), 0.01 µM (≈ 0.00847 µg/mL). Besides, the ƒu in [2] (4 h, 10000 ng/mL) is recorded as 4.5%. Besides, the free fraction (fraction unbound) (commonly the share of the substance not bound to proteins or other matrix) at 4 h, 10000 ng/mL in data set [2] (plasma) was 0.0376. Besides, the “plasma unbound (ƒu, %)” value in [2] (plasma, 4 h, 10000 ng/mL) is given as 3.8%. For the same compound, in data set [2] (plasma, 4 h, 10000 ng/mL), the unbound fraction is 3.76%. In addition, the MBC in data set [7] (setting [14]) was 5 µM (≈ 4.24 µg/mL); in data set [8] (setting [14]) it was 72 µM (≈ 61 µg/mL). The same compound gave a cMBC90/bMBC90 in [8] of 16.

The record behind these values is patent publication US20260109712A1, “RIFAMYCINS FOR NONTUBERCULOUS MYCOBACTERIA” (priority 2022, published 2026).
